# Biological target: SOS1/KRAS WT (Homo sapiens (Human), UniProt Q07889)
# Assay: SOS1/KRAS WT HTRF binding assay (FRET-based protein-protein interaction)
# Settings: inhibition of His6-SOS1 (aa564-1049, 40 nM) binding to GST-KRAS-WT (aa1-188, 40 nM); at least two independent replicates; read-out: SOS1/KRAS WT HTRF Binding assay pIC50 (converted)
# Description: The capacity of compounds to inhibit SOS1 binding to KRAS-WT (wild-type) was quantified using a FRET-based protein-protein interaction assay. The assay is based on the transfer of energy between two fluorophores, a donor and an acceptor, when in close proximity. In this instance, the donor is a Europium-conjugated α-GST antibody that binds to GST-tagged KRAS-WT, and the acceptor is an XL665-conjugated α-His 6 antibody that binds to His 6-tagged SOS1. Binding of SOS1 to KRAS-WT results in an increased fluorescent signal at emission wavelength of 665 nm which can be detected on the EnVision plate reader. Compounds that inhibit binding will reduce the 665 nm signal emitted. Recombinant KRAS-WT protein (40 nM; Human KRAS, aa1-188 recombinant protein with N-terminal GST-tag) and SOS1 protein (40 nM; Human SOS1 exchange domain, aa564-1049 with N-terminal 6His-tag) were mixed together in assay buffer (5 mM HEPES pH7.3, 150 mM NaCl, 10 mM EDTA, 5 mM MgCl2, 0.05% BSA, 0.0025% NP-40, 1 mM DTT and 100 mM KF) and incubated at room temperature with a dose response of compound in a 384-well low volume white plate and a final volume of 5 ul. After a 60 minute incubation, 5 ul of 4 nM anti-GST-Eu(K) (Cisbio, France) combined with 20 nM anti-6His-XL665 (Cisbio, France), diluted in assay buffer, was added to the plate. Following a further 4 hr incubation at room temperature, time-resolved fluorescence was measured on the EnVision plate reader. DMSO (0.05%) and 10 μM reference compound were used to generate the Max and Min assay signals, respectively. Data was analysed using a four-parameter logistic model to calculate IC50 values, with at least two independent replicates performed for each compound.
# Data was analyzed using a four-parameter logistic model to calculate IC50 values, with at least two independent replicates performed for each compound.
# SOS1/KRAS WT, sequence (Q07889 564-1049): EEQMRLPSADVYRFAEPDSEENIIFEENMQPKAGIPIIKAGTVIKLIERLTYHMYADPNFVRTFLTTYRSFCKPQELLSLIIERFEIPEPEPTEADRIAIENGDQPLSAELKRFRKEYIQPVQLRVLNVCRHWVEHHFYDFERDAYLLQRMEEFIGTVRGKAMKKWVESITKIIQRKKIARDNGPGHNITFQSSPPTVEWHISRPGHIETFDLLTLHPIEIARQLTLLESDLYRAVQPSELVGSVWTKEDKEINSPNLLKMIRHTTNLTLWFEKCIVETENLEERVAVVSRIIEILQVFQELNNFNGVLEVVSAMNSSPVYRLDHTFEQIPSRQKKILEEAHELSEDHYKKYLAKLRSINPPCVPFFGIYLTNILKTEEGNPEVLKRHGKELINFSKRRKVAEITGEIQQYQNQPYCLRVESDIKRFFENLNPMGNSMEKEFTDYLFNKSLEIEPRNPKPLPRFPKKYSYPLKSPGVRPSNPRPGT
row,IC50,Compound
1,0.0145 µM,"Cc1nnc(N[C@H](C)c2cccc(C(F)(F)CO)c2F)c2cc3c(cc12)n(C)c(=O)n3C(C)(C)C [Compound 26, 3-tert-butyl-1,8-dimethyl-5-[[(1R)-1-[3-(1,1-difluoro-2-hydroxy-ethyl)-2-fluoro-phenyl]ethyl]amino]imidazo[4,5-g]phthalazin-2-one]"
2,0.0107 µM,"Cc1nnc(N[C@H](C)c2cccc(C(F)(F)F)c2)c2cc3c(cc12)C(C)(C)C(=O)N3C [Compound 32, 1,3,3,5-tetramethyl-8-[[(1R)-1-[3-(trifluoromethyl)phenyl]ethyl]amino] pyrrolo[2,3-g]phthalazin-2-one]"
3,0.0107 µM,"COCCn1c(=O)n(C)c2cc3c(C)nnc(N[C@H](C)c4cccc(C(F)(F)F)c4F)c3cc21 [Compound 35, 3-(2-methoxyethyl)-1,8-dimethyl-5-[[(1R)-1-[2-fluoro-3-(trifluoromethyl)phenyl]ethyl]amino] imidazo[4,5-g]phthalazin-2-one]"
4,0.00759 µM,"Cc1nnc(N[C@H](C)c2cccc(C(F)(F)F)c2F)c2cc3c(cc12)n(C)c(=O)n3C(C)C [Compound 38, 3-isopropyl-1,8-dimethyl-5-[[(1R)-1-[2-fluoro-3-(trifluoromethyl)phenyl]ethyl]amino] imidazo[4,5-g]phthalazin-2-one]"
5,0.00977 µM,"Cc1c(C#N)cccc1[C@@H](C)Nc1nnc(C)c2cc3c(cc12)n(C(C)C)c(=O)n3C [Compound 45, 2-methyl-3-[(1R)-1-[(3-isopropyl-1,8-dimethyl-2-oxo-imidazo[4,5-g]phthalazin-5-yl)amino]ethyl]benzonitrile]"
6,0.011 µM,"Cc1nnc(N[C@H](C)c2cccc(C(F)(F)C(C)(C)O)c2F)c2cc3c(cc12)C(C)(C)C(=O)N3C [Compound 46, 1,3,3,5-tetramethyl-8-[[(1R)-1-[3-(1,1-difluoro-2-hydroxy-2-methyl-propyl)-2-fluoro-phenyl]ethyl]amino]pyrrolo[2,3-g]phthalazin-2-one]"
7,0.0138 µM,"Cc1c(C#N)cccc1[C@@H](C)Nc1nnc(C)c2cc3c(cc12)n(C1CC1)c(=O)n3C [Compound 47, 2-methyl-3-[(1R)-1-[(3-cyclopropyl-1,8-dimethyl-2-oxo-imidazo[4,5-g]phthalazin-5-yl)amino]ethyl]benzonitrile]"
8,0.0135 µM,"Cc1c(C#N)cccc1[C@@H](C)Nc1nnc(C)c2cc3c(cc12)N(C)C(=O)C3(C)C [Compound 48, 2-methyl-3-[(1R)-1-[(1,3,3,5-tetramethyl-2-oxo-pyrrolo[3,2-g]phthalazin-8-yl)amino]ethyl]benzonitrile]"
9,0.0234 µM,"Cc1nnc(N[C@H](C)c2cc(F)cc(C(F)(F)CO)c2)c2cc3c(cc12)n(C)c(=O)n3C [Compound 51, 5-[[(1R)-1-[3-(1,1-difluoro-2-hydroxy-ethyl)-5-fluoro-phenyl]ethyl]amino]-1,3,8-trimethyl-imidazo[4,5-g]phthalazin-2-one]"

# Second part, the molecule before the results:
row,Compound,IC50
1,"Cc1nnc(N[C@H](C)c2cccc(C(F)(F)F)c2)c2cc3c(cc12)OC1(CC1)C(=O)N3C(C)C [Compound 25, 4′-isopropyl-9′-methyl-6′-[[(1R)-1-[3-(trifluoromethyl)phenyl]ethyl]amino]spiro[cyclopropane-1,2′-pyridazino[4,5-g][1,4]benzoxazine]-3′-one]",0.0631 µM
2,"Cc1nnc(N[C@H](C)c2cccc(C(F)F)c2F)c2cc3c(cc12)n(C)c(=O)n3C(C)(C)C [Compound 27, 3-tert-butyl-1,8-dimethyl-5-[[(1R)-1-[3-(difluoromethyl)-2-fluoro-phenyl]ethyl]amino]imidazo[4,5-g]phthalazin-2-one]",0.00933 µM
3,"COCCn1c(=O)n(C)c2cc3c(C)nnc(N[C@H](C)c4cccc(C(F)F)c4F)c3cc21 [Compound 28, 3-(2-methoxyethyl)-1,8-dimethyl-5-[[(1R)-1-[3-(difluoromethyl)-2-fluoro-phenyl]ethyl]amino]imidazo[4,5-g]phthalazin-2-one]",0.0123 µM
4,"Cc1nnc(N[C@H](C)c2cccc(C(F)F)c2F)c2cc3c(cc12)OC(C)(C)C(=O)N3C [Compound 30, 2,2,4,9-tetramethyl-6-[[(1R)-1-[3-(difluoromethyl)-2-fluoro-phenyl]ethyl]amino]pyridazino[4,5-g][1,4]benzoxazin-3-one]",0.0148 µM
5,"Cc1nnc(N[C@H](C)c2cccc(C(F)F)c2F)c2cc3c(cc12)n(C)c(=O)n3C [Compound 31, 1,3,8-trimethyl-5-[[(1R)-1-[3-(difluoromethyl)-2-fluoro-phenyl]ethyl]amino]imidazo[4,5-g]phthalazin-2-one]",0.00955 µM
6,"Cc1nnc(N[C@H](C)c2cccc(C(F)(F)C(C)(C)O)c2F)c2cc3c(cc12)n(C)c(=O)n3C1CC1 [Compound 33, 3-cyclopropyl-1,8-dimethyl-5-[[(1R)-1-[3-(1,1-difluoro-2-hydroxy-2-methyl-propyl)-2-fluoro-phenyl]ethyl]amino]imidazo[4,5-g]phthalazin-2-one]",0.00977 µM
7,"Cc1nnc(N[C@H](C)c2cccc(C(F)F)c2F)c2cc3c(cc12)n(C)c(=O)n3C1CC1 [Compound 34, 3-cyclopropyl-1,8-dimethyl-5-[[(1R)-1-[3-(difluoromethyl)-2-fluoro-phenyl]ethyl]amino]imidazo[4,5-g]phthalazin-2-one]",0.00977 µM
8,"COCC(F)(F)c1cccc([C@@H](C)Nc2nnc(C)c3cc4c(cc23)n(C)c(=O)n4C)c1F [Compound 36, 5-[[(1R)-1-[3-(1,1-difluoro-2-methoxy-ethyl)-2-fluoro-phenyl]ethyl]amino]-1,3,8-trimethyl-imidazo[4,5-g]phthalazin-2-one]",0.012 µM
9,"COCCn1c(=O)n(C)c2cc3c(C)nnc(N[C@H](C)c4cccc(C(F)(F)CO)c4F)c3cc21 [Compound 37, 3-(2-methoxyethyl)-1,8-dimethyl-5-[[(1R)-1-[3-(1,1-difluoro-2-hydroxy-ethyl)-2-fluoro-phenyl]ethyl]amino]imidazo[4,5-g]phthalazin-2-one]",0.0105 µM
10,"Cc1c(C#N)cccc1[C@@H](C)Nc1nnc(C)c2cc3c(cc12)n(C)c(=O)n3C [Compound 39, 2-methyl-3-[(1R)-1-[(1,3,8-trimethyl-2-oxo-imidazo[4,5-g]phthalazin-5-yl)amino]ethyl]benzonitrile]",0.0447 µM
11,"Cc1nnc(N[C@H](C)c2cccc(C(F)(F)F)c2F)c2cc3c(cc12)n(C)c(=O)n3C [Compound 40, 1,3,8-trimethyl-5-[[(1R)-1-[2-fluoro-3-(trifluoromethyl)phenyl]ethyl]amino]imidazo[4,5-g]phthalazin-2-one]",0.00891 µM
12,"Cc1nnc(N[C@H](C)c2cccc(C(F)(F)CN)c2F)c2cc3c(cc12)n(C)c(=O)n3C [Compound 41, 1,3,8-trimethyl-5-[[(1R)-1-[3-(2-amino-1,1-difluoro-ethyl)-2-fluoro-phenyl]ethyl]amino]imidazo[4,5-g]phthalazin-2-one]",0.0162 µM
13,"Cc1nnc(N[C@H](C)c2cccc(C(F)(F)F)c2)c2cc3c(cc12)OCCC(=O)N3C [Compound 42, 5,10-dimethyl-7-[[(1R)-1-[3-(trifluoromethyl)phenyl]ethyl]amino]-2,3-dihydropyridazino[4,5-h][1,5]benzoxazepin-4-one]",0.0347 µM
14,"Cc1nnc(N[C@H](C)c2cccc(C(F)F)c2F)c2cc3c(cc12)n(C)c(=O)n3C(C)C [Compound 43, 3-isopropyl-1,8-dimethyl-5-[[(1R)-1-[3-(difluoromethyl)-2-fluoro-phenyl]ethyl]amino]imidazo[4,5-g]phthalazin-2-one]",0.00282 µM
15,"Cc1nnc(N[C@H](C)c2cccc(C(F)F)c2F)c2cc3c(cc12)C(C)(C)C(=O)N3C [Compound 44, 1,3,3,5-tetramethyl-8-[[(1R)-1-[3-(difluoromethyl)-2-fluoro-phenyl]ethyl]amino]pyrrolo[2,3-g]phthalazin-2-one]",0.00871 µM
16,"Cc1c(C#N)cccc1[C@@H](C)Nc1nnc(C)c2cc3c(cc12)n(C(C)(C)C)c(=O)n3C [Compound 49, 2-methyl-3-[(1R)-1-[(3-tert-butyl-1,8-dimethyl-2-oxo-imidazo[4,5-g]phthalazin-5-yl)amino]ethyl]benzonitrile]",0.0112 µM
17,"Cc1nnc(N[C@H](C)c2cccc(C(F)(F)F)c2)c2cc3c(cc12)n(C)c(=O)n3CC(F)F [Compound 50, 3-(2,2-difluoroethyl)-1,8-dimethyl-5-[[(1R)-1-[3-(trifluoromethyl)phenyl]ethyl]amino] imidazo[4,5-g]phthalazin-2-one]",0.0132 µM
18,"Cc1nnc(N[C@H](C)c2cccc(C(F)(F)F)c2F)c2cc3c(cc12)n(C)c(=O)n3C1CC1 [Compound 52, 3-cyclopropyl-1,8-dimethyl-5-[[(1R)-1-[2-fluoro-3-(trifluoromethyl)phenyl]ethyl]amino] imidazo[4,5-g]phthalazin-2-one]",0.00813 µM

# From US20250197407A1 (Jazz Pharmaceuticals Ireland Limited, priority 2022, published 2025)
